The subject of one assay is GLP-1 secretion. The assay can be described thus: GLP-1 plasma concentration in IUGR rats fed HMO-supplemented regimen. The format is in vivo, rat. From the text:
A wide group of pregnant female rats were bought from Charles River laboratories. They were submitted to food restriction of 60% during the last 10 days of gestation.
Immediately after birth (d=1), the born rat pups—subjects of the experiment—were split into several groups: • IUGR rats (control) (n=20) • IUGR rats+HMO (test groups): During the experiment, they were reared by their mothers for 21 days and supplemented with HMOs (2FL or LNnT). At weaning, they were fed a diet supplemented with the same HMOs, see details below. There were 2 different groups: • IUGR rats+2FL (n=10) • IUGR rats+LNnT (n=10)
IUGR (intrauterine growth restricted) rats were chosen as control model since they have a higher appetite to compensate their growth retardation, and therefore they may not eat in a healthy way with standard diets (e.g. they may have a higher total weight and/or adipose mass increase over their lean mass increase) which may lead to the development and programming for future health conditions including later in life obesity or future related comorbidities like diabetes.
All rat pups were fed from birth (d=1) up to 57 days (d=57) based on the following protocol: • day 1-day 6: all groups of rats were nursed by dam (mothers' milk only) • day 7-day 21: all rats were nursed by dam (mothers' milk only). But in the test groups, 3 g/kg body weight of a HMO were also administered by gavage: 2FL: 3 g/kg body weight, for the group IUGR rats+2FL LNnT: 3 g/kg body weight, for the group IUGR rats+LNnT • day 22-day 57: rats were separated from their mothers and they had the following regimen: • IUGR rats (control): fed with a control diet (composition detailed in table 2), no HMO supplementation
IUGR rats+HMO (test groups): fed with the same diet but supplemented with 4.5 wt % of a HMO (maltodextrin in the total control diet was replaced by the respective tested HMO):
4.5 wt % of 2FL for the group IUGR rats+2FL
4.5 wt % of LNnT for the group IUGR rats+LNnT
GLP-1 secretion in the rats was assessed by determination of its circulating concentration in plasma.

The next assay deals with NCI-H716 cells. The experiment in a line: Calcium assay in NCI-H716 cells (fluorescent calcium sensitive dye). The format is cell-based, human. The note with it: for significance of increase in fluorescence ratio: 5 mg/mL, 10 mg/mL and 20 mg/mL, p<0.05 vs negative control, two-sided t-test; for concentration dependence of calcium response: 1-20 mg/mL; for fluorescence ratio (intracellular calcium response): all tested concentrations: 1, 5, 10 and 20 mg/mL, vs buffer negative control. From the text:
NCI-H716 is a cell line derived from human L-cells, the enteroendocrine cells that secrete GLP-1, and it is often used as a model of GLP-1 secretion. Unstimulated NCI-H716 cells secrete a basal level of GLP-1 and activation of the cells leads to dose-dependent increase in GLP-1 secretion. Activation of the NCI-H716 cells and subsequent release of GLP-1 can be triggered by nutrients such as palmitic acid, oleic acid, and meat hydrolysate, Gastrin Releasing Peptide (GRP), the cholinergic molecule Carbachol, bitter compounds such as denatonium, ginsenosides and other molecules.
Activation of NCI-H716 cells by ionomycin, GRP, denatonium, or ginsenosides leads to increased intracellular calcium. Elevation of intracellular calcium is therefore a marker of cell activation and in NCI-H716 cells it could be considered as an indicator of GLP-1 release.
A calcium assay was used to determine if NCI-H716 cells respond to human milk oligosaccharides (sialylated oligosaccharides 3SL and 6SL) or components/precursors thereof (lactose and sialic acid). In this assay, cultured NCI-H716 cells were loaded with a fluorescent calcium sensitive dye then stimulated with the HMOs. The response to the stimulus was measured by change in fluorescence ratio in consequence of intracellular calcium increase. The tested HMOs were 3′-sialyllactose (3SL) and 6′-sialyllactose (6SL). They were tested individually.
GRP (Gastrin Releasing Peptide): positive control
Tested HMOs concentrations: 1 mg/mL, 5 mg/mL, 10 mg/mL and 20 mg/mL
Tested lactose and sialic acid concentrations: 5.5 mg/mL and 4.72 mg/mL respectively (correspond to the amounts contained in 10 mg/mL of 3SL, in order to make a suitable comparison with 10 mg/mL of 3SL)
In general terms: A change in cytosolic calcium serves as a functional read-out for many receptors and channels.

Where [1] appears, read: d=57, 3 g/kg by gavage day 7-21, then diet with 4.5 wt % HMO day 22-57, FIG. 1A partial results.
Setting [2] is: d=57, 3 g/kg by gavage day 7-21, then diet with 4.5 wt % HMO day 22-57, FIG. 1B final results.

With 2′-fucosyllactose [2FL], the “GLP-1 plasma concentration increase in comparison with the control group” value in the assay on GLP-1 secretion (setting [1]) turned out to be 200%; in the assay on GLP-1 secretion (setting [2]) it was 164%.

Consider `CC(=O)N[C@H]1[C@H](O[C@H]2[C@@H](O)[C@@H](CO)O[C@@H](O[C@H]3[C@H](O)[C@@H](O)C(O)O[C@@H]3CO)[C@@H]2O)O[C@H](CO)[C@@H](O[C@@H]2O[C@H](CO)[C@H](O)[C@H](O)[C@H]2O)[C@@H]1O` (mixture of isomers) [LNnT, lacto-N-neotetraose], for which the “GLP-1 plasma concentration increase in comparison with the control group” value is 43% in the assay on GLP-1 secretion (setting [1]) and 13% in the assay on GLP-1 secretion (setting [2]).

For `CC(=O)N[C@H]1[C@H]([C@H](O)[C@H](O)CO)O[C@@](O[C@H]2[C@@H](O)[C@@H](CO)O[C@@H](O[C@H]3[C@H](O)[C@@H](O)C(O)O[C@@H]3CO)[C@@H]2O)(C(=O)O)C[C@@H]1O` (stereo partly drawn) [3SL, (6R)-5-Acetamido-3,5-dideoxy-6-[(1R,2R)-1,2,3-trihydroxypropyl]-β-L-threo-hex-2-ulopyranonosyl-(2->3)-β-D-galactopyranosyl-(1->4)-D-glucopyranose], in the assay with NCI-H716 cells, the “significance of increase in fluorescence ratio” value is recorded as “significant”, the “concentration dependence of calcium response” value is on record as “clear concentration dependent calcium response” and the “fluorescence ratio (intracellular calcium response)” value was “enhanced”.

For `CC(=O)N[C@H]1[C@H]([C@H](O)[C@H](O)CO)O[C@@](OC[C@H]2O[C@@H](O[C@H]3[C@H](O)[C@@H](O)C(O)O[C@@H]3CO)[C@H](O)[C@@H](O)[C@H]2O)(C(=O)O)C[C@@H]1O` (stereo partly drawn) [6SL, (6R)-5-Acetamido-3,5-dideoxy-6-[(1R,2R)-1,2,3-trihydroxypropyl]-β-L-threo-hex-2-ulopyranonosyl-(2->6)-β-D-galactopyranosyl-(1->4)-D-glucopyranose], in the assay with NCI-H716 cells, the “significance of increase in fluorescence ratio” value is given as “significant”, the “concentration dependence of calcium response” value was “clear concentration dependent calcium response” and the “fluorescence ratio (intracellular calcium response)” value is “enhanced”.

On to `OC[C@H]1O[C@@H](O[C@H]2[C@H](O)[C@@H](O)C(O)O[C@@H]2CO)[C@H](O)[C@@H](O)[C@H]1O` (stereo partly drawn) [Lactose, reference compound], for which the “activation of NCI-H716 cells (calcium response)” value in the assay with NCI-H716 cells (5.5 mg/mL (amount contained in 10 mg/mL 3SL)) was “did not activate the cells”.

For `CC(=O)N[C@H]1[C@H]([C@H](O)[C@H](O)CO)OC(O)(C(=O)O)C[C@@H]1O` (stereo partly drawn) [sialic acid, N-acetylneuraminic acid, reference compound], the “activation of NCI-H716 cells (calcium response)” value in the assay with NCI-H716 cells (4.72 mg/mL (amount contained in 10 mg/mL 3SL)) is recorded as “did not activate the cells”.

The values above are taken from US20210205341A1, “COMPOSITIONS COMPRISING HUMAN MILK OLIGOSACCHARIDES FOR USE IN INFANTS OR YOUNG CHILDREN TO PREVENT OR TREAT A HEALTH DISORDER BY INCREASING GLP-1 SECRETION” (NESTEC S.A., priority 2016, published 2021).
